From patent US11484529B2, “Desmethylanethole trithione derivatives for the treatment of diseases linked to mitochondrial reactive oxygen species (ROS) production” (OP2 Drugs, priority 2017, dated 2022)

Legend:
site IQ = assay: ROS/H2O2 production, site targeted individually (96-well Amplex Red), 10 mM succinate alone; format: biochemical, rat; settings: 0 to 80 μM; effect at concentrations as low as 2.5 μM
Procedure: After freshly isolating mitochondria from rat heart, then measuring protein quantity of the mitochondrial suspension, H2O2 production in response to the exogenous addition of increasing concentrations of AOL, AOX and Oltipraz was measured fluorimetrically with Amplex Red and horseradish peroxidase (HRP).
The two major sites of mitochondrial ROS/H2O2 production were targeted individually using the combination of succinate (energy substrate of respiratory complex 2) and known inhibitors of respiratory chain, namely for site IQ, 10 mM succinate alone (CCCP as positive control) and for site IIIQouter, 10 mM succinate, 4 μM rotenone and 2.5 μM antimycin A (myxothiazol as positive control). These “reaction” solutions were designed to generate maximal rates of ROS/H2O2 production predominantly from a single site within the chain (Quinlan et al. 2013. Redox Biol. 1:304-12).
For measurement, a working solution of 50 μM Amplex red reagent and 20 μg/ml HRP was mixed to the reaction buffer into the corresponding wells of a 96-well plate (Greiner 96 F-bottom), in the absence or presence of increasing concentrations (from 0 to 80 μM) of AOL, AOX or Oltipraz. Addition of mitochondria to a final concentration of 0.125 mg/mL per well initiated the assay. The appropriate total volume per microplate well was 200 μL.
Plates were incubated in the dark at room temperature for 20-25 minutes. A double orbital shaking (100 rpm-3 seconds) was applied before reading the endpoint fluorescence values on a CLARIOstar plate reader (BMG LABTECH GmbH, Germany). In fact, H2O2 reacts with Amplex Red in a 1:1 stoichiometry, yielding the fluorescent compound resorufin that was analyzed using the following optic settings (excitation wavelength at 546-20 nm; emission at 600-40 nm; gain: 750).
Also, an H2O2 standard curve, with concentrations ranging from 0 to 5 μM, was prepared in the experimental buffer that consisted in (in mM): 140 sucrose, 100 KCl, 1 EGTA, 20 MgCl2, 10 KH2PO4, and 1 g/L (w/v) BSA essentially fatty acid free (pH 7.2). […]

intrapulmonary arteries = assay: Isometric contraction of intrapulmonary arteries induced by serotonin or endothelin
Procedure: Intrapulmonary arteries of the first order (IPA1) were divided into short tubular segments with an external diameter of 1.5-2 mm and used for isometric contraction measurement. Arterial rings were mounted in isolated organ bath systems, containing Krebs solution (containing 118.4 mM NaCl, 4.7 mM KCl, 1.2 mM MgSO4, 25 mM NaHCO3, 1.2 mM KH2PO4, 2.5 mM CaCl2) and 11.1 mM D-glucose, pH 7.4 adjusted with NaOH) at 37° C. and bubbled continuously with […]. An initial load of 0.8 to 1 g was applied to arterial rings. Tissues were allowed to equilibrate for 1 hour in Kreb's solution and washed out every 15 minutes. A high KCl solution (80 mM) was applied in order to obtain a reference contraction used to normalize subsequent contractile responses.
Contractile responses to different agonists were then tested by constructing a cumulative concentration-response curve (CCRC) to serotonin (5HT, 10^−4 to 10^−[…]) or endothelin (ET-1, 10^−7 to 10^−10 M). When indicated, AOL or AOX were preincubated during 30 minutes, and then CCRC to agonist was performed in the presence of the drug. High potassium solutions were obtained by substituting an equimolar amount of KCl for NaCl from Kreb's solution. Endothelial function was tested on each ring by examining the relaxation induced by 10 μM carbamylcholine on 0.3 μM Phe-induced preconstricted pulmonary arterial rings. Passive and active mechanical properties were assessed using transducer systems, coupled to IOX software (EMKA Technologies, Paris, France) in order to facilitate data acquisition and analysis.

COc1ccc(-c2cc(=S)ss2)cc1 [AOL, 5-(4-methoxyphenyl)-3H-1,2-dithiole-3-thione]
inhibition of ROS production in site IQ (site IQ): strongly inhibit the ROS production by complex I | endothelin-induced contractions (intrapulmonary arteries; AOL preincubated 30 minutes): no effect on endothelin-induced contractions | serotonin-induced contractions (intrapulmonary arteries; AOL preincubated 30 minutes): could relax contractions induced with up to 5·10^−5 M of serotonin

Oc1ccc(-c2cc(=S)ss2)cc1 [AOX, 5-(4-hydroxyphenyl)-3H-1,2-dithiole-3-thione]
inhibition of ROS production in site IQ (site IQ): strongly inhibit the ROS production by complex I | response of serotonin- and endothelin-induced contractions compared with AOL (intrapulmonary arteries; AOX at 10 μM): same pattern of response | serotonin-induced contractions (intrapulmonary arteries; higher concentrations of AOX (above 10 μM)): contractions induced with 10^−4 M of serotonin could be relaxed
